From PubChem BioAssay (NCI)
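Dose response: 5 concentrations. Exposure: 48 h. Format: 96-well plates. Endpoint: linear interpolation; highest concentration if not reached. TGI marks complete inhibition of growth.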

How the values were obtained:
Test in all cases: growth of human tumour cells (NCI), 48 h
UACC-62 melanoma = system: UACC-62 melanoma
ACHN renal = system: ACHN renal
CAKI-1 renal = system: CAKI-1 renal
HOP-92 NSCLC = system: HOP-92 NSCLC
NCI-H522 lung = system: NCI-H522 lung
SK-OV-3 ovarian = system: SK-OV-3 ovarian
SN12C renal = system: SN12C renal
HS 578T breast = system: HS 578T breast
RPMI-8226 leukemia = system: RPMI-8226 leukemia
M14 melanoma = system: M14 melanoma

C[C@]12CCC(=O)C=C1CC[C@@H]1[C@@H]2[C@@H](O)C[C@@]2(C)[C@H]1CC[C@]2(O)C(=O)COC(=O)CCC1CCCC1
TGI (UACC-62 melanoma): > 100 µM | TGI (ACHN renal): > 100 µM | TGI (CAKI-1 renal): > 100 µM | TGI (HOP-92 NSCLC): > 100 µM | TGI (NCI-H522 lung): > 100 µM | TGI (SK-OV-3 ovarian): > 100 µM | TGI (SN12C renal): > 100 µM

O=C(O)COc1cc(-c2ccccc2)nc2ccccc12
TGI (HS 578T breast): > 100 µM | TGI (RPMI-8226 leukemia): > 100 µM | TGI (ACHN renal): > 100 µM | TGI (M14 melanoma): > 100 µM | TGI (CAKI-1 renal): > 100 µM | TGI (HOP-92 NSCLC): > 100 µM | TGI (NCI-H522 lung): > 100 µM | TGI (SK-OV-3 ovarian): > 100 µM | TGI (SN12C renal): > 100 µM

C=CCc1ccccc1C1CC2(C(=O)OC)OC1C(C(=O)OC)=C2C(=O)OC (configuration not stated)
TGI (HS 578T breast): > 10 µM | TGI (RPMI-8226 leukemia): > 10 µM | TGI (UACC-62 melanoma): > 10 µM | TGI (ACHN renal): > 10 µM | TGI (M14 melanoma): > 10 µM | TGI (CAKI-1 renal): > 10 µM | TGI (SK-OV-3 ovarian): > 10 µM | TGI (SN12C renal): > 10 µM

COc1cccc(C23CCCC(C2)N(C)CC3OC(=O)c2ccccc2)c1OC (configuration not stated)
TGI (HS 578T breast): 78.6 µM | TGI (RPMI-8226 leukemia): 55.3 µM | TGI (UACC-62 melanoma): 84.5 µM | TGI (ACHN renal): > 100 µM | TGI (M14 melanoma): 29.6 µM | TGI (CAKI-1 renal): > 100 µM | TGI (NCI-H522 lung): 67.6 µM | TGI (SK-OV-3 ovarian): 97.7 µM

CCCCCCCCCCCCCCCCCCNC(=O)OCC(CNS(=O)(=O)CCC[n+]1cccc2ccccc21)COC (configuration not stated)
TGI (HS 578T breast): 5.35 µM | TGI (RPMI-8226 leukemia): > 100 µM | TGI (UACC-62 melanoma): 8.21 µM | TGI (ACHN renal): 29.9 µM | TGI (M14 melanoma): 25.9 µM | TGI (CAKI-1 renal): 51.3 µM | TGI (HOP-92 NSCLC): 4.01 µM | TGI (SK-OV-3 ovarian): > 24.5 µM | TGI (SN12C renal): 20.8 µM

Cn1ccc2c(c1=O)C(=O)OC2(C)C
TGI (HS 578T breast): > 100 µM | TGI (RPMI-8226 leukemia): > 100 µM | TGI (UACC-62 melanoma): > 100 µM | TGI (ACHN renal): > 100 µM | TGI (M14 melanoma): > 100 µM | TGI (CAKI-1 renal): > 100 µM | TGI (SK-OV-3 ovarian): > 100 µM | TGI (SN12C renal): > 100 µM

CCN(CC)/[N+]([O-])=N/O
TGI (UACC-62 melanoma): > 100 µM | TGI (ACHN renal): > 100 µM | TGI (M14 melanoma): > 100 µM | TGI (CAKI-1 renal): > 100 µM | TGI (HOP-92 NSCLC): > 100 µM | TGI (NCI-H522 lung): > 100 µM | TGI (SK-OV-3 ovarian): > 100 µM | TGI (SN12C renal): > 100 µM

CCN1CCCn2c(=O)[nH]c3cc(Br)cc1c32
TGI (HS 578T breast): 97.2 µM | TGI (RPMI-8226 leukemia): > 100 µM | TGI (UACC-62 melanoma): > 100 µM | TGI (ACHN renal): > 100 µM | TGI (M14 melanoma): > 100 µM | TGI (CAKI-1 renal): > 100 µM | TGI (SK-OV-3 ovarian): > 100 µM | TGI (SN12C renal): > 100 µM

Cc1ccc(/C=C2/NC(=S)SC2=O)cc1
TGI (ACHN renal): > 100 µM | TGI (M14 melanoma): > 100 µM | TGI (CAKI-1 renal): 51.1 µM | TGI (HOP-92 NSCLC): > 100 µM | TGI (SK-OV-3 ovarian): > 100 µM | TGI (SN12C renal): > 100 µM

COc1cc(CNC(=S)CCCCCCCCCCC(C)C)ccc1O
TGI (HS 578T breast): 83.7 µM | TGI (RPMI-8226 leukemia): > 100 µM | TGI (UACC-62 melanoma): > 100 µM | TGI (ACHN renal): > 100 µM | TGI (M14 melanoma): > 100 µM | TGI (HOP-92 NSCLC): 68 µM | TGI (SK-OV-3 ovarian): > 100 µM | TGI (SN12C renal): > 100 µM

O=c1c2cc(Br)ccc2ncn1COCc1ccccc1
TGI (UACC-62 melanoma): > 100 µM | TGI (ACHN renal): 74 µM | TGI (M14 melanoma): > 100 µM | TGI (HOP-92 NSCLC): > 100 µM | TGI (SK-OV-3 ovarian): > 100 µM

Cc1cn(CCOCCOC(=O)NC(CCCNC(N)=O)C(=O)O)c(=O)[nH]c1=O (configuration not stated)
TGI (HS 578T breast): > 100 µM | TGI (RPMI-8226 leukemia): > 100 µM | TGI (UACC-62 melanoma): > 100 µM | TGI (ACHN renal): > 100 µM | TGI (M14 melanoma): > 100 µM | TGI (CAKI-1 renal): > 100 µM | TGI (HOP-92 NSCLC): > 100 µM | TGI (SK-OV-3 ovarian): > 100 µM | TGI (SN12C renal): > 100 µM

O=c1c(O)cccn1C1OC(CO)C(O)C1O (configuration not stated)
TGI (RPMI-8226 leukemia): > 100 µM | TGI (UACC-62 melanoma): > 100 µM | TGI (ACHN renal): > 100 µM | TGI (M14 melanoma): > 100 µM | TGI (CAKI-1 renal): > 100 µM | TGI (HOP-92 NSCLC): > 100 µM | TGI (NCI-H522 lung): > 100 µM | TGI (SK-OV-3 ovarian): > 100 µM | TGI (SN12C renal): > 100 µM

COc1cc2c(cc1OC)C(=O)/C(=C/c1ccc(O)cc1)CC2
TGI (HS 578T breast): > 10 µM | TGI (RPMI-8226 leukemia): > 10 µM | TGI (UACC-62 melanoma): > 10 µM | TGI (ACHN renal): > 10 µM | TGI (M14 melanoma): > 10 µM | TGI (CAKI-1 renal): > 10 µM | TGI (HOP-92 NSCLC): > 10 µM | TGI (SK-OV-3 ovarian): > 10 µM | TGI (SN12C renal): > 10 µM

O=[N+]([O-])c1ccc2nc(/C=C(\O)c3ccc(Cl)cc3)c(/C=C(\O)c3ccc(Cl)cc3)nc2c1
TGI (UACC-62 melanoma): > 100 µM | TGI (ACHN renal): > 100 µM | TGI (M14 melanoma): > 100 µM | TGI (CAKI-1 renal): > 100 µM | TGI (NCI-H522 lung): 60.7 µM | TGI (SN12C renal): > 100 µM

C=CC(OC(C)=O)c1ccc(OC(C)=O)cc1 (configuration not stated)
TGI (HS 578T breast): 16.6 µM | TGI (RPMI-8226 leukemia): 5.92 µM | TGI (UACC-62 melanoma): 28.1 µM | TGI (ACHN renal): 6.26 µM | TGI (M14 melanoma): 22.9 µM | TGI (CAKI-1 renal): 10 µM | TGI (HOP-92 NSCLC): 22.8 µM | TGI (NCI-H522 lung): 3.57 µM | TGI (SK-OV-3 ovarian): 32.6 µM

COc1cc2oc(-c3ccc4c(c3)OCO4)c(OC)c(=O)c2c(O)c1OC
TGI (HS 578T breast): > 50 µM | TGI (UACC-62 melanoma): > 50 µM | TGI (ACHN renal): > 50 µM | TGI (M14 melanoma): > 50 µM | TGI (CAKI-1 renal): > 50 µM | TGI (HOP-92 NSCLC): > 50 µM | TGI (NCI-H522 lung): > 50 µM | TGI (SK-OV-3 ovarian): > 50 µM | TGI (SN12C renal): > 50 µM

CCn1c(=O)c2c3ccc(OC(C)=O)cc3[nH]c2c2ccc(OC(C)=O)cc21
TGI (HS 578T breast): > 100 µM | TGI (UACC-62 melanoma): > 100 µM | TGI (ACHN renal): 89.6 µM | TGI (M14 melanoma): > 100 µM | TGI (CAKI-1 renal): > 100 µM | TGI (HOP-92 NSCLC): > 100 µM | TGI (NCI-H522 lung): > 100 µM | TGI (SK-OV-3 ovarian): > 100 µM | TGI (SN12C renal): > 100 µM

C=CCOC1(CC=C)C(=O)OC2C(O)COC21O (configuration not stated)
TGI (HS 578T breast): > 100 µM | TGI (UACC-62 melanoma): > 100 µM | TGI (ACHN renal): > 100 µM | TGI (M14 melanoma): > 100 µM | TGI (CAKI-1 renal): > 100 µM | TGI (NCI-H522 lung): > 100 µM | TGI (SK-OV-3 ovarian): > 100 µM | TGI (SN12C renal): > 100 µM

COC(=O)[C@@H]1C=C[C@H](NC(C)=O)C1
TGI (HS 578T breast): > 100 µM | TGI (RPMI-8226 leukemia): > 100 µM | TGI (UACC-62 melanoma): > 100 µM | TGI (M14 melanoma): > 100 µM | TGI (CAKI-1 renal): > 100 µM | TGI (HOP-92 NSCLC): > 100 µM | TGI (SK-OV-3 ovarian): > 100 µM | TGI (SN12C renal): > 100 µM

O=c1oc2cccnc2n1CCCCN1CCN(c2ccccc2)CC1
TGI (HS 578T breast): > 100 µM | TGI (RPMI-8226 leukemia): > 100 µM | TGI (ACHN renal): > 100 µM | TGI (M14 melanoma): > 100 µM | TGI (CAKI-1 renal): > 100 µM | TGI (HOP-92 NSCLC): > 100 µM | TGI (NCI-H522 lung): > 100 µM | TGI (SK-OV-3 ovarian): > 100 µM

COC(=O)[C@](C)(Cc1ccccc1)NC(=O)[C@@H](C)N1[C@@H](c2ccccc2)COC1(C)C
TGI (HS 578T breast): > 100 µM | TGI (RPMI-8226 leukemia): > 100 µM | TGI (UACC-62 melanoma): > 100 µM | TGI (ACHN renal): > 100 µM | TGI (M14 melanoma): > 100 µM | TGI (CAKI-1 renal): > 100 µM | TGI (HOP-92 NSCLC): > 100 µM | TGI (NCI-H522 lung): 99.3 µM | TGI (SK-OV-3 ovarian): > 100 µM

CC(C)(Cc1ccccc1)N1C(=O)N1C(C)(C)Cc1ccccc1
TGI (HS 578T breast): > 100 µM | TGI (RPMI-8226 leukemia): 38.5 µM | TGI (UACC-62 melanoma): > 100 µM | TGI (M14 melanoma): > 100 µM | TGI (CAKI-1 renal): > 100 µM | TGI (NCI-H522 lung): 60.6 µM | TGI (SK-OV-3 ovarian): > 100 µM | TGI (SN12C renal): > 100 µM

COC(=O)/C=c1/c2ccccc2n2c1c1ccccc1[n+]2C
TGI (HS 578T breast): > 100 µM | TGI (RPMI-8226 leukemia): 9.67 µM | TGI (UACC-62 melanoma): 27.5 µM | TGI (ACHN renal): 14.7 µM | TGI (M14 melanoma): 15.5 µM | TGI (CAKI-1 renal): 70.9 µM | TGI (SK-OV-3 ovarian): 6.93 µM | TGI (SN12C renal): 16.4 µM

NNC(=O)Cn1ccnn1
TGI (RPMI-8226 leukemia): > 100 µM | TGI (ACHN renal): > 100 µM | TGI (M14 melanoma): > 100 µM | TGI (CAKI-1 renal): > 100 µM | TGI (HOP-92 NSCLC): > 100 µM | TGI (NCI-H522 lung): > 100 µM | TGI (SN12C renal): > 100 µM

COc1cc2oc(=O)cc(C)c2c(OC)c1OC(C)=O
TGI (HS 578T breast): > 100 µM | TGI (RPMI-8226 leukemia): > 100 µM | TGI (UACC-62 melanoma): > 100 µM | TGI (ACHN renal): > 100 µM | TGI (M14 melanoma): > 100 µM | TGI (SK-OV-3 ovarian): > 100 µM | TGI (SN12C renal): > 100 µM
